Assay results as given in patent US20090253650A1, “Teat antiseptic prepared from polysaccharide gel with bactericidal and immuno-stimulating activity isolated from durian fruit-rind” (priority 2008, published 2009).

Tested on: peritoneal leukocyte
Assay: Peritoneal leukocyte count in mice after intraperitoneal injection
Type: in vivo
Settings: 3% thioglycollate (positive control)

Substance: thioglycollate
- Number of Lymphocyte (mean ± S.E.): 0.86 ± 0.14 ×10^6 cell/ml
